The values below come from patent US9670261B2 (Sanofi, priority 2012, dated 2017).

Structures are written as SMILES. *1 amine or outer side, *2 acyl side, *3 side chain or, on linkers, in order; H or OH if unused. Where a SMILES comes first, the peptide text is derived from it. Side-chain parts run from the residue outwards. [ ]: non-standard residue; d: D form. The star is where a group is joined. γGlu = O=C(O)[C@H](CCC(=O)[*:2])N[*:1]; Palmitoyl = CCCCCCCCCCCCCCCC(=O)*; Aib = CC(C)(N)C(=O)O

The term Cmax denotes the highest concentration seen after dosing. One may read the half-life as how long it takes for the measured level to halve. Lower therefore signals fast loss. As a reminder, the EC50 is the concentration giving half of the maximal effect.

Series [1] can be described thus: Pharmacokinetic testing in Göttinger minipigs, s.c. It is filed as in vivo. To be noted: female, minipig, plasma, sc, Mini pigs, 0.1 mg/kg s.c.
Procedure: Female Göttinger minipigs were dosed 0.1 mg/kg subcutaneously (s.c.). Blood samples were collected after 0.25, 0.5, 1, 2, 4, 8, 24, 32, 48, 56 and 72 hours post application. Plasma samples were analyzed after protein precipitation via liquid chromatography mass spectrometry (LC/MS). PK parameters and half-life were calculated using WinonLin Version 5.2.1 (non-compartment model).
Series [2] relates to female diet-induced obese (DIO) C57BL/6NCrl mice. The series is described as follows: Body weight in DIO mice, 14 weeks of prefeeding with high-fat diet (method 2). The class given is in vivo. The protocol:
Female C57BL/6NCrl mice were housed in groups in a specific pathogen-free barrier facility on a 12 h light/dark cycle with free access to water and high-fat diet. After 14 weeks on high-fat diet, mice were stratified to treatment groups (n=8), so that each group had similar mean body weight.
An aged-matched group with ad libitum access to standard chow and water was included as standard control group.
(§1) Before the experiment, mice were subcutaneously (s.c.) injected with vehicle solution and weighed for 3 days to acclimate them to the procedures.
Body weight was recorded daily.
(§2) Statistical analyses were performed with Everstat 6.0 by repeated measures two-way ANOVA and Dunnett's post-hoc analyses (glucose profile) and 1-way-ANOVA, followed by Dunnett's post-hoc test (body weight, body fat). Differences versus vehicle-treated DIO control mice were considered statistically significant at the p<0.05 level.
Female obese C57BL/6NCrl mice were treated for 3 weeks once daily subcutaneously in the late afternoon, prior the end of the light phase (12 h lights on) with 10 μg/kg SEQ ID NO: 9 and SEQ ID NO: 21 or vehicle. Body weight was recorded daily.

In a further series the test system is female NMRI-mice. The series is described as follows: Automated assessment of 22-hours feed intake in mice. The class given is in vivo. Here is the method: Female NMRI-mice of a body weight between 20 and 30 g were used. Mice were adapted to housing conditions for at least one week and for at least one day single-caged in the assessment equipment, when basal data were recorded simultaneously. On the study day, test product was administered subcutaneously close to the lights-off phase (12 h lights off) and assessment of feed consumption was directly started afterwards. Assessment included continued monitoring over 22 hours, while data are processed as mean over every 30 min. Repetition of this procedure over several days was possible. Restriction of assessment to 22 hours was for practical reasons to allow for reweighing of animals, refilling of feed and water and drug administration between procedures. Results could be assessed as cumulated data over 22 hours or differentiated to 30 min intervals. […] Statistical analyses were performed with Everstat 6.0 by two-way ANOVA on repeated measures and Dunnett's post-hoc analyses. Differences were considered statistically significant at the p<0.05 level. […] Lights-off phase (dark phase) started 4 hours later. […].

Series [3] can be described thus: Pharmacokinetic testing in mice, s.c. To be noted: mouse, plasma, sc, 1 mg/kg.
Procedure: Mice were dosed 1 mg/kg subcutaneously (s.c.). The mice were sacrified and blood samples were collected after 0.25, 0.5, 1, 2, 4, 8, 16 and 24 hours post application. Plasma samples were analyzed after protein precipitation via liquid chromatography mass spectrometry (LC/MS). PK parameters and half-life were calculated using WinonLin Version 5.2.1 (non-compartment model).
The nature of series [4]: Chemical stability in solution, 7 days at 25° C. (% remaining peptide). To be noted: % remaining peptide after 7 days at 25° C.
Procedure: After that time course, the sample was centrifuged for 20 min at 4000 rpm and the supernatant was analysed with HPLC-UV. For determination of the amount of the remaining peptide, the peak areas of the target compound at t0 and t7 were compared, resulting in “% remaining peptide”, following the equation % remaining peptide=[(peak area peptide t7)×100]/peak area peptide t0.
The chemical stability is expressed as “% remaining peptide”.
Series [5] deals with female diet-induced obese (DIO) C57BL/6NCrl mice. Put plainly: Blood glucose and body weight in DIO mice, 18 weeks on high-fat diet (method 1). The class given is in vivo. Conditions: for decrease of body weight, relative change from baseline: 4 weeks; for Bodyfat change / Overall weight change: 4-week treatment, mean ± SEM. Here is the method: Female C57BL/6NCrl mice were housed in groups in a specific pathogen-free barrier facility on a 12 h light/dark cycle with free access to water and high-fat diet. After 18 weeks on high-fat diet, mice were stratified to treatment groups (n=8), so that each group had similar mean body weight. An aged-matched group with ad libitum access to standard chow was included as standard control group.
as §1
The volume of administration was 5 mL/kg. The animals had access to water and their corresponding diet during the experiment, food consumption was determined at all time points of blood sampling. Blood glucose levels were measured at t=0.5 h, t=1 h, t=2 h, t=4 h, t=6 h, t=8 h, and t=24 h (method: d-glucose hexokinase, hemolysate, AU640 Beckman Coulter). Blood sampling was performed by tail incision without anaesthesia.
Body weight was recorded daily. On days 6 and 28, total fat mass was measured by nuclear magnetic resonance (NMR) using a Bruker minispec (Ettlingen, Germany).
as §2
Diet-induced obese female C57BL/6NCrl mice were administered daily in the afternoon, at the end of the light phase (12 h lights on) with 10, 30 and 100 μg/kg of SEQ ID NO: 9 or phosphate buffered solution (vehicle control on standard or high-fat diet) subcutaneously. On day 6 of treatment and at predefined time points, more blood samples were taken to measure blood glucose and generate the blood glucose profile over 24 h.
Female obese C57BL/6NCrl mice were treated for 4 weeks once daily subcutaneously in the afternoon, at the end of the light phase (12 h lights on) with 10, 30 or 100 μg/kg SEQ ID NO: 9 or vehicle. Body weight was recorded daily, and body fat content was determined before the start of treatment and after 4 weeks of treatment.

The target of the next series is T1, human GLP-1 receptor (Homo sapiens, UniProt P43220).
T1 construct: expressed in transfected cells
The series is described as follows: cAMP response (HTRF) of HEK-293 cells stably expressing human GLP-1 receptor. Conditions: Table 7; cAMP formation; read-out: EC50 hGLP-1 R. It is filed as cell-based. In outline: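 Cells grown overnight in DMEM/10% FBS, detached with accutase, resuspended in HBSS with 20 mM HEPES, 0.1% BSA and 2 mM IBMX at 400000 cells/ml. Test compound added and incubated 30 minutes at room temperature; cellular cAMP then measured by HTRF.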

T1 sequence (P43220 24-463): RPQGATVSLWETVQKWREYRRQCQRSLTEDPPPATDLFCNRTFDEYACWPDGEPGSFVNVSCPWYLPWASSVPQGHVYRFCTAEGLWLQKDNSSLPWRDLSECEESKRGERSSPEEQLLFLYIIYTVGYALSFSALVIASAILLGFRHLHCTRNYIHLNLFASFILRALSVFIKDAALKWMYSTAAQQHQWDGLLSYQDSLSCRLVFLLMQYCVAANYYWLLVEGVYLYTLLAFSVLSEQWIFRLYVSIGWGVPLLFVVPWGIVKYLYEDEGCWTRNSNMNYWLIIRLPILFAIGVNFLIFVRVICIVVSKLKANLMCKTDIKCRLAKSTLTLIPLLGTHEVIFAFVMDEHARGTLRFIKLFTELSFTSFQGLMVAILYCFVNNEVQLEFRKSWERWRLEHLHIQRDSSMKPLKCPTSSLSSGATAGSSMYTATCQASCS

As for `CCCCCCCCCCCCCCCC(=O)N[C@@H](CCC(=O)NCCCC[C@H](NC(=O)[C@H](CCC(N)=O)NC(=O)[C@@H](NC(=O)[C@H](CO)NC(=O)[C@H](CC(C)C)NC(=O)[C@H](CC(=O)O)NC(=O)[C@H](CO)NC(=O)[C@@H](NC(=O)[C@H](Cc1ccccc1)NC(=O)[C@@H](NC(=O)CNC(=O)[C@H](CCC(=O)O)NC(=O)C(C)(C)NC(=O)[C@@H](N)Cc1ccc(O)cc1)[C@@H](C)O)[C@@H](C)O)[C@@H](C)CC)C(=O)N[C@@H](CCC(=O)O)C(=O)N[C@@H](CCCCN)C(=O)N[C@@H](CCCNC(=N)N)C(=O)N[C@@H](C)C(=O)N[C@@H](C)C(=O)NC(C)(C)C(=O)N[C@@H](CCC(=O)O)C(=O)N[C@@H](Cc1ccccc1)C(=O)N[C@H](C(=O)N[C@@H](CCC(=O)O)C(=O)N[C@@H](Cc1c[nH]c2ccccc12)C(=O)N[C@@H](CC(C)C)C(=O)N[C@@H](CCCCN)C(=O)N[C@@H](CC(N)=O)C(=O)N[C@H](C(=O)NCC(=O)N1CCC[C@H]1C(=O)N[C@@H](CO)C(=O)N[C@@H](CO)C(=O)NCC(=O)N[C@@H](C)C(=O)N1CCC[C@H]1C(=O)N1CCC[C@H]1C(=O)N1CCC[C@H]1C(=O)N[C@@H](CO)C(N)=O)[C@@H](C)O)[C@@H](C)CC)C(=O)O` [SEQ ID NO: 9, Y-Aib-E-G-T-F-T-S-D-L-S-I-Q-K(γE-x53)-E-K-R-A-A-Aib-E-F-I-E-W-L-K-N-T-G-P-S-S-G-A-P-P-P-S-NH2] (H-Y[Aib]EGTFTSDLSIQK([γGlu-Palmitoyl])EKRAA[Aib]EFIEWLKNTGPSSGAPPPS-NH2), the Cmax came out at 278 ng/mL in series [1] and 5470 ng/mL in series [3]. For the same molecule, the half-life was 732 min in series [1] and 246 min in series [3]. Also, the “decrease of body weight, relative change from baseline” value in series [2] (10 μg/kg s.c. once daily, 3 weeks) is recorded as “up to 15.1%”; in series [5] (10 μg/kg s.c. once daily) it was 13.3-16.4%; in series [5] (30 μg/kg s.c. once daily) it was 17.6-20.9%; in series [5] (100 μg/kg s.c. once daily), 21.7-22.7%. The Overall weight change in series [2] (10 μg/kg, 3-week treatment, mean ± SEM) is -6.2 ± 0.4 g; in series [5] (10 μg/kg), -5.0 ± 0.5 g; in series [5] (30 μg/kg), -6.9 ± 0.5 g; in series [5] (100 μg/kg), -7.3 ± 0.6 g. In addition, the “reduction of feed intake after 22 hours” value in the series on female NMRI-mice (3 μg/kg s.c. (not significant, p=0.78)) is 11%; with female NMRI-mice (10 μg/kg s.c.), 62%. For the same molecule, the “Stability (pH 4.5)” value in series [4] (pH 4.5) came to 92.5%. In series [4] (pH 7.4), the “Stability (pH 7.4)” value was determined as 97.7%. Moreover, the Bodyfat change in series [5] (10 μg/kg) is -4.2 ± 0.4 g; in series [5] (30 μg/kg), -6.1 ± 0.4 g; in series [5] (100 μg/kg) it was -6.4 ± 0.5 g. For the same molecule, in series [5] (day 6 of treatment, 10, 30 and 100 μg/kg s.c. daily), the “basal blood glucose levels compared to DIO control mice” value was “dose-dependently decreased”. For the same molecule, the EC50 at human GLP-1 receptor was determined as 3.6 pM.
